According to ChEMBL document CHEMBL1201862, “PubChem BioAssay data set” (2004):
One block for each compound: values may come before it. The source made the active and inactive calls.

What was measured:
[1] = inhibitors of HIV Env-driven cell fusion, dose response, cherry-pick (AID 652057); assay type: functional, cell-based
[2] = CEM21 lymphoblast cell cytotoxicity, dose response, cytotoxicity control for viral fusion inhibitor project, CellTiter-Glo luminescence, cherry-picked (AID 652042); assay type: functional, cell-based;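 note: potency for signal decrease meaning cytotoxicity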
[3] = ZM109 Env clade C HIV-1 fusion inhibitors, dose response, HeLa effector, CEM target cells, luciferase, cherry-pick (AID 652058); assay type: functional, cell-based
[4] = off-target signal loss in HeLa-CEM21 co-culture – HeLa F-luc CTL cells, cherry-picked, counter-screen for HIV-1 Env fusion inhibitor project, dose response (AID 652040); assay type: functional, cell-based;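 note: potency for signal decrease marking cytotoxic or nonspecific inhibition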
[5] = inhibitors of clade B AD8 Env fusion, dose response, cell-based, cherry-pick (AID 652062); assay type: functional;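 note: luciferase signal from cell-cell fusion driven by HIV-1 clade B AD8 Env; potency is for inhibitors of fusion seen as a drop in luminescence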
[6] = molecular target: T1, Calpain-2 catalytic subunit (Sus scrofa, UniProt P43367); experiment: pig calpain II inhibitor potency, dose response, biochemical, fluorogenic peptide substrate (AID 1420); assay type: functional
T1 sequence (P43367 whole entry): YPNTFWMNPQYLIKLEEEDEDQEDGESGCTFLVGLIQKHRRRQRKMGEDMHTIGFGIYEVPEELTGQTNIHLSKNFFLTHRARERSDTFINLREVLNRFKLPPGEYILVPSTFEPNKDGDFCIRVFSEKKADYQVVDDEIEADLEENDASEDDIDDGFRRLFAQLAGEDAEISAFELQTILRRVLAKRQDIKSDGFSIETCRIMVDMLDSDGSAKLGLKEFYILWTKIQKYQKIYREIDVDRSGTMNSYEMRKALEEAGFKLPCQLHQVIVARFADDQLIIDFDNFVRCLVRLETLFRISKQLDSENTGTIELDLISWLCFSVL

Galanin receptor type 3 = molecular target: T2, Galanin receptor type 3 (Homo sapiens, UniProt O60755); experiment: Fluorescence-based cell-based primary high throughput dose response assay to identify antagonists of the Galanin Receptor 3 (GalR3).; assay type: functional
T2 sequence (O60755 whole entry): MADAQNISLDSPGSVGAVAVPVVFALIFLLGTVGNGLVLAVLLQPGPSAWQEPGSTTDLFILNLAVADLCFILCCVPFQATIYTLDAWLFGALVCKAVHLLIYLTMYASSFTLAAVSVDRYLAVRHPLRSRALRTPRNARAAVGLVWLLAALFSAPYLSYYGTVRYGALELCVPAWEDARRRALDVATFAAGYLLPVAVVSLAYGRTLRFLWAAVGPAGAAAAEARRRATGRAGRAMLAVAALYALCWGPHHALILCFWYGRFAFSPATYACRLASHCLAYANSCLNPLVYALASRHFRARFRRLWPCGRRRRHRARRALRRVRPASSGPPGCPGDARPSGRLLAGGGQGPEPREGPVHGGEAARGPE

cells = assay type: functional, cell-based; details: HEK-CNG
Cysteine protease ATG4B = molecular target: T3, Cysteine protease ATG4B (Homo sapiens, UniProt Q9Y4P1); assay type: functional;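 note: Fluorescence-based dose-response confirmation assay measuring inhibition of ATG4B activity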
T3 sequence (Q9Y4P1 whole entry): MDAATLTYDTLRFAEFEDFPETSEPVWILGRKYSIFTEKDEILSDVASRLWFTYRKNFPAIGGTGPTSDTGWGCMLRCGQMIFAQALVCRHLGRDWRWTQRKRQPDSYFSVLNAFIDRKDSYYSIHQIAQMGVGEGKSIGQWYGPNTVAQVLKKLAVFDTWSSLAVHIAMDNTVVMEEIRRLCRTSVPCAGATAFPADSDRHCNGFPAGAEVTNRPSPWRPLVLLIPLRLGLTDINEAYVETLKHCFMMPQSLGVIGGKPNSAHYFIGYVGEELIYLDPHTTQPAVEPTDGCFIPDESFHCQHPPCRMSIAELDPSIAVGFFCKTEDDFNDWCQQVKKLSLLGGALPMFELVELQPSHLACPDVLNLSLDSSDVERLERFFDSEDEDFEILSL

Phospholipase A2 = Phospholipase A2 (Homo sapiens, UniProt P04054); assay type: functional;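 note: confirmatory dose-response counterscreen on phospholipase A2, testing hits that came from an ultra-high-throughput screen for ATG4B inhibitors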
Chain of Phospholipase A2 (P04054 whole entry): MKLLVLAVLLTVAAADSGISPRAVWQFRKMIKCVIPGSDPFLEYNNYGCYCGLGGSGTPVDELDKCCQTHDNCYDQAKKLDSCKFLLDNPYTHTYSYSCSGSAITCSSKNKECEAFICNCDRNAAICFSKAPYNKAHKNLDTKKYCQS

[7] = molecular target: Luciferin 4-monooxygenase (Photinus pyralis, UniProt P08659); experiment: firefly luciferase enzyme inhibitors, dose response, biochemical, luminescence (AID 1891)
Chain of Luciferin 4-monooxygenase (P08659 whole entry): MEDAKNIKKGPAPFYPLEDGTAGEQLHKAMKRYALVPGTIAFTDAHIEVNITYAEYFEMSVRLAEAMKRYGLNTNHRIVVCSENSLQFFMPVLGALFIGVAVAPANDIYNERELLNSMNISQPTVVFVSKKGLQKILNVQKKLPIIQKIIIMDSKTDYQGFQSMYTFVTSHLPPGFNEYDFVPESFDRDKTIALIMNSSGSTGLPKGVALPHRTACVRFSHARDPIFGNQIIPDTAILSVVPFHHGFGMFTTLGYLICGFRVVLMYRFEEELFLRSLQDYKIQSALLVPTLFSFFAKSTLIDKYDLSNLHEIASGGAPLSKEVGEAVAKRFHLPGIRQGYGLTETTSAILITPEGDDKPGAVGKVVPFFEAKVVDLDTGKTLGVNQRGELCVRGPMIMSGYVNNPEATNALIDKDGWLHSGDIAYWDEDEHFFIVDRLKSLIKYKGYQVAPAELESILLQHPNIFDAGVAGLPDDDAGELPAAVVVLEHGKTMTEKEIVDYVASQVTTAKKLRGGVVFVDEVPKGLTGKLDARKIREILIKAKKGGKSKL

[8] = Luminescence Cell-Based Dose Confirmation HTS to Identify Inhibitors of Platelet Dense Granule Release. [Related pubchem assays: 1663 (Primary HTS), 1678 (Summary of Project)]; assay type: functional
[9] = molecular target: T4, Probable nicotinate-nucleotide adenylyltransferase (Staphylococcus aureus (strain N315), UniProt P65502); assay type: functional, Staphylococcus aureus subsp. aureus N315;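 for IC50 Mean: confirmatory dose-response retesting of NadD inhibitor hits first found in an ultra-high-throughput screen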
[10] = molecular target: T4, Probable nicotinate-nucleotide adenylyltransferase; assay type: functional, Staphylococcus aureus subsp. aureus N315; details: read-out: IC50_Mean
[11] = HEp-2 cell cytotoxicity, dose response, cytotoxicity control for RSV inhibitor project, HTS (AID 2410); assay type: functional; details: human respiratory syncytial virus
[12] = tested on: Streptococcus sp. 'group A'; experiment: growth inhibition of control SK(-) GAS strain, dose response, counter-screen for streptokinase expression inhibitor project, luminescence, kanamycin, BacTiterGlo, confirmation (AID 1900); assay type: functional, organism-based
Streptococcus = experiment: Group A Streptococcus viability loss, dose response, counter-screen for streptokinase expression inhibitor project, luminescence, BacTiterGlo (AID 1915); assay type: functional, organism-based;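 note: potency for reduction of bacterial viability or growth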
[13] = inhibitors of intracellular T. cruzi replication, confirmation, NIH3T3 host cells, beta-gal luminescence (AID 2044); assay type: functional, cell-based;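 note: intracellular parasites grown in NIH/3T3 mouse fibroblasts as host cells; luminescent beta-galactosidase reporter signal from transgenic T. cruzi replicating inside host cells; inhibitors lower the luminescence signal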
[14] = cytotoxicity toward NIH3T3 fibroblasts, dose response, counter-screen, cell-based, ATP luminescence, mouse fibroblasts (AID 2010); assay type: functional;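 note: cells exposed to compound for about 90 hours before reading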
[15] = molecular target: Heat shock protein HSP 90-alpha (Homo sapiens, UniProt P07900); assay type: functional, organism-based
INS1 = experiment: beta cell apoptosis inhibitors, cytokine rescue, dose response, luminescence, retest (AID 449756); assay type: functional, cell-based; details: Rattus norvegicus;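 note: cell death triggered by IL-1 beta plus TNF-alpha plus IFN-gamma mixture; protective hits raise ATP signal compared with cytokine alone wells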
[16] = molecular target: T5, Sentrin-specific protease 8 (Homo sapiens, UniProt Q96LD8); assay type: functional
T5 sequence (Q96LD8 whole entry): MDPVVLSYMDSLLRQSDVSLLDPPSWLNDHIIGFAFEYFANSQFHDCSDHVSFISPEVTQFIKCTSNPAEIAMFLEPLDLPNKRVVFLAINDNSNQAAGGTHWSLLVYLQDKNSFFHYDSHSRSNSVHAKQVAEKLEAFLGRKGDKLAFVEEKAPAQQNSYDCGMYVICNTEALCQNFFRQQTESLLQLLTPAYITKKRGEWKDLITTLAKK

[17] = molecular target: T5, Sentrin-specific protease 8; assay type: functional; remark: listed apart in the source

Compound: CCCCCCCCN1C(=O)[C@H](CC(=O)N2CCCCC2)C[C@@]2(C(=O)OCC)CCCC=C12
AC50 [1]: 8.73 µM (active)
AC50 [2]: 37.2 µM (active)
AC50 [3]: 13.9 µM (active)
AC50 [4]: > 70 µM (inactive)
AC50 [5]: 0.465 µM (active)

Compound: Cn1c(N)c(C(=O)COC(=O)c2cnc(Cl)c(Cl)c2)c(=O)n(C)c1=O
IC50 [6]: 10.1 µM (active)
IC50 (Galanin receptor type 3): > 29.9 µM (inactive)
EC50 (cells): > 29.9 µM (inactive)

IC50 (Cysteine protease ATG4B): 21 µM (inactive)
IC50 (Phospholipase A2): 8.63 µM (active)
Compound: O=C(O)Cc1sc(NC2CCCCC2)nc1-c1ccc(Cl)cc1

Compound: COc1cccc(C2c3c(-c4cc(Cl)c(C)cc4O)n[nH]c3C(=O)N2Cc2cccnc2)c1 (stereo not given)
EC50 [7]: > 112 µM (not active)
EC50 [8]: 41.2 µM (active)
IC50 [9]: 21.5 µM (active)
IC50 [10]: 46 µM (active)

Compound: Cc1n[nH]c2c1C1(C(=O)N(Cc3ccc(Cl)cc3)c3ccccc31)C(C#N)=C(N)O2 (stereo not given)
CC50 [11]: 25.1 µM (active)
AC50 [1]: 3.62 µM (active)
AC50 [2]: 59.1 µM (active)
AC50 [4]: 55.2 µM (active)
AC50 [5]: 39.6 µM (active)

Compound: CC(C)(C)C(=O)NC(=S)NNC(=O)c1ccc(Cl)cc1Cl
EC50 [12]: 1.88 µM (active)
EC50 (Streptococcus): 5.5 µM (active)
IC50 (Galanin receptor type 3): > 29.9 µM (inactive)
EC50 (cells): > 29.9 µM (inactive)

Compound: CC1CC(=O)NN=C1c1ccc(NCCO)c([N+](=O)[O-])c1 (stereo not given)
EC50 [7]: > 112 µM (not active)
EC50 [8]: < 0.088 µM (active)
IC50 (Galanin receptor type 3): 0.367 µM (active)
EC50 (cells): > 29.9 µM (inactive)

IC50 (Cysteine protease ATG4B): 14.5 µM (active)
IC50 (Phospholipase A2): 7.55 µM (active)
Compound: CC1CC(C)CN(C(=O)C2CCN(S(=O)(=O)c3ccc4c(c3)CC(C)N4C(=O)C3CC3)CC2)C1 (stereo not given)

Compound: Cc1ccc(NC(=S)N/N=C/c2ccc([N+](=O)[O-])s2)cc1
EC50 [13]: 1.34 µM (active)
EC50 [14]: 7.86 µM (active)
AC50 [15]: 3.4 µM (active)
AC50 (INS1): 6.72 µM (active)
IC50 [16]: 18.4 µM (active)
IC50 [17]: 21.5 µM (active)
